Results reported in PubChem BioAssay (NCI).
Where “and” joins values, the source holds several entries; their conditions need not be identical. Identical values can stand only once.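 Cultured in 96-well plates, cells were exposed to test compound for 48 hours across five concentrations. The concentration for 50% growth inhibition is given as GI50. TGI is the concentration that stops growth completely.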

Assays:
Test in all cases: NCI anticancer screen, dose series, 48 h
[1] = tested on: NCI-H522 lung
[2] = tested on: HCT-15 colon
[3] = tested on: LOX IMVI melanoma
[4] = tested on: SNB-75 CNS
[5] = tested on: BT-549 breast
[6] = tested on: NCI-H23 lung
[7] = tested on: HOP-62 NSCLC
[8] = tested on: KM12 colon
[9] = tested on: SK-MEL-2 melanoma
[10] = tested on: K-562 leukemia

SMILES	GI50 [1]	TGI [1]	GI50 [2]	TGI [2] [µM]	GI50 [3]	TGI [3] [µM]	GI50 [4]	TGI [4]	GI50 [5]	TGI [5]	GI50 [6]	TGI [6]	GI50 [7]	TGI [7]	GI50 [8]	TGI [8]	GI50 [9]	TGI [9]	GI50 [10]	TGI [10] [µM]
O=[N+]([O-])c1ccc(-c2cc3c(Nc4ccc(Cl)c(C(F)(F)F)c4)ncnc3s2)cc1	0.566 µM	5.13 µM	1.01 µM	> 100	1.62 µM	> 100	1.87 µM	9.02 µM	2.91 µM	> 100 µM	1.06 µM	> 100 µM	3.13 µM	> 100 µM	1.42 µM	> 100 µM	2.4 µM	6.42 µM	0.872 µM	> 100
CC(=Nc1ccc(S(N)(=O)=O)cc1)c1c(O)[nH]c2ccccc12	> 25 µM	> 25 µM	> 25 µM	> 25	> 25 µM	> 25	> 25 µM	> 25 µM	> 25 µM	> 25 µM	> 25 µM	> 25 µM	> 14.5 µM	> 25 µM	0.872 µM	> 25 µM	> 25 µM	> 25 µM	> 25 µM	> 25
Cc1cc2c(cc1Cl)S/C(=C/C(=O)O)C(Nc1cccc3nsnc13)=NS2(=O)=O	30.7 µM	> 77.4 µM	> 54.7 µM	> 68.8	53.4 µM	> 70.1	> 100 µM	> 100 µM	–	1.38 µM	35.2 µM	> 61.7 µM	> 54.8 µM	> 66.9 µM	50.6 µM	> 65.3 µM	> 58.6 µM	> 77.8 µM	70.1 µM	> 100
COc1ccc(C2=C(N3CCc4ccccc43)C(=O)NC2=O)cc1	> 17.9 µM	> 25 µM	> 25 µM	> 25	> 25 µM	> 25	> 24.1 µM	> 25 µM	24.2 µM	> 25 µM	> 25 µM	> 25 µM	> 25 µM	> 25 µM	> 25 µM	> 25 µM	> 25 µM	> 25 µM	> 17.4 µM	> 25
COc1cccc(COc2cc(-n3cnc4ccccc43)sc2C(N)=O)c1	9.92 µM	> 25 µM	> 25 µM	> 25	> 25 µM	> 25	> 12.2 µM	> 25 µM	> 21 µM	> 25 µM	> 16.6 µM	> 25 µM	5.34 µM	> 25 µM	2.42 µM	> 25 µM	> 15.4 µM	> 25 µM	> 25 µM	> 25
CCOc1ccc(Nc2c3ccccc3nc3ccccc23)cc1	0.214 µM and 0.319 µM	1.44 µM and 11.8 µM	0.592 µM and 0.552 µM	3.18	0.515 µM and 0.529 µM	2.98	0.309 µM and 0.25 µM	3.39 µM and 1.52 µM	0.478 µM and 0.556 µM	9.51 µM and 10.2 µM	0.495 µM and 0.422 µM	4.51 µM and 3.3 µM	0.416 µM and 0.672 µM	5.25 µM and 13.1 µM	0.581 µM and 0.487 µM	9.39 µM and 4.52 µM	0.402 µM and 0.413 µM	3.76 µM and 1.69 µM	0.316 µM and 0.0616 µM	–
C/C1=C\CC[C@@](C)(O)[C@@H]2C[C@H](CC/C(C)=C/CC1)C1(CC1)C(=O)O2	35.1 µM	> 100 µM	30.2 µM	> 100	18.8 µM	34.5	30.8 µM	> 100 µM	25.5 µM	69.7 µM	18.9 µM	48.7 µM	45.1 µM	> 100 µM	25.4 µM	68.5 µM	41.2 µM	> 100 µM	13.6 µM	46.6
CCOC(=O)c1c(SCCN2CCOCC2)n(-c2ccccc2)c(=S)n(-c2ccccc2)c1=O	–	> 100 µM	–	45.7	–	33.3	–	> 100 µM	–	> 100 µM	–	92.3 µM	–	–	–	> 100 µM	–	> 100 µM	–	38
O=C(NCCN1CCNCC1)c1ccc(Nc2nc3ccccc3c3occc23)cc1	10.3 µM	28.3 µM	20 µM	37.9	15.2 µM	33.1	7.06 µM	25.9 µM	2.72 µM	18.2 µM	12.6 µM	27.6 µM	10.3 µM	22.4 µM	19 µM	40.6 µM	18.3 µM	36.4 µM	14.4 µM	40.1
COc1ccc(C(=O)c2nc3ccccc3n2CC(=O)c2ccc(Cl)cc2)cc1	3.95 µM	> 100 µM	2 µM	> 100	6.2 µM	> 100	2.75 µM	> 100 µM	4.11 µM	> 100 µM	4.61 µM	> 100 µM	4.78 µM	> 100 µM	1.59 µM	> 100 µM	12.6 µM	> 100 µM	0.585 µM	> 100
CC(C)Oc1ccc(C(=O)Cn2ccnc2)cc1-n1c(CN2CCN(C(=O)COc3ccc(Cl)cc3)CC2)nc2ccccc2c1=O	2.24 µM	14.8 µM	12.3 µM	32.6	9.64 µM	27.5	5.49 µM	32.2 µM	13.5 µM	30.9 µM	16.2 µM	37.7 µM	15 µM	44.9 µM	17 µM	36.2 µM	17.6 µM	38.5 µM	5.77 µM	81.3
COc1cc2nc(-c3ccc(C(F)(F)F)cc3)cc(OCCCN3CCCC3)c2cc1OC	1.15 µM	25.8 µM	0.429 µM	6.99	0.116 µM	0.322	0.207 µM	4.49 µM	0.917 µM	4.95 µM	2.9 µM	17.6 µM	1.42 µM	18.5 µM	1.73 µM	30.1 µM	3.41 µM	11.2 µM	0.445 µM	4.54
O=C1c2cccc3cccc(c23)C(=O)N1O	–	> 100 µM	–	> 100	–	> 100	–	80.2 µM	–	> 100 µM	–	> 100 µM	–	–	–	> 100 µM	–	> 100 µM	–	> 100
